These results are taken from patent publication US8012481B2, “Composition and method for inducing or restoring locomotor functions in an animal” (Universite Laval, priority 2004, dated 2011).

The structures appear in SMILES notation.

Common to all, as to type: in vivo, mouse
Assay [1] concerns paraplegic mice (lumbar spinal cord circuitry for hindlimb locomotion). The assay is described as follows: Hindlimb movement generation (LM/NLM) on a motor-driven treadmill in complete spinal cord transected mice. Particulars: for mice in which a mixture of LM and NLM was induced: 7 animals/group; for induction of LM: some NLM were found.
The test system of assay [2] is paraplegic mice. Nature of the assay: Hindlimb movement generation in paraplegic mice, air-stepping and/or treadmill not separated; BBB and AOB scales. Conditions: for effect of 5-HT1A antagonist pretreatment on 8-OH-DPAT-induced LM: antagonist 2 mg/kg; for induction of LM / induction of NLM: increasing doses, air-stepping and treadmill conditions, FIG. 13. On the procedure:
Animals and Treatment. We tested one hundred and ninety five (n=195) male and female adult CD1 and C57BL/6 mice weighing 30-40 grams prior to the study (Charles River Laboratory, St-Constant, Canada). […] Animals were spinalized 7 days prior to testing (exceptionally tested sometimes at 15 days post-spinalization, e.g., FIG. 17). A complete transection of the spinal cord was performed intervertebrally between the 9th and 10th vertebrae in isoflurane (2.5%) anesthetized animals. Complete spinalization was confirmed by 1) full paralysis of the hindlimbs, 2) post-mortem examination of the spinal cord microscopically and, in some cases, 3) staining transverse or sagittal spinal cord sections with luxol fast blue/cresyl violet for myelinated axons and nissl substance respectively. All mice received pre-operative care and post-operative care including lactate-Ringer's solution (2 ml/day, s.c.), analgesic (buprenorphine 0.2 mg/kg/day, s.c.) and antibiotic (baytril 5 mg/kg/day, s.c.). Bladders were emptied manually and animals were left in their cage without other interventions with food and water ad libitum until testing. Mice received a single injection (i.p.) of either 8-OHDPAT (5-HT1A/7); 5-CT (5-HT1A/7 agonist); buspirone (5-HT1A agonist); TFMPP (5-HT1B/2C agonist); quipazine (5-HT2B/2C); m-CPP (5-HT2B/2C agonist); SR-57227A (5-HT3) one week post-spinalization. […] The contribution of spinal 5-HT4/5/6 receptor activation to hindlimb movement generation in spinalized animals were not tested either because selective ligands are not available or because no significant expression levels have been found for these receptor subtypes in the mammalian spinal cord (see Schmidt and Jordan, Brain Res Bull 2000).
Hindlimb movement recording. Hindlimb movements were filmed (digital video camera 3 Com Home-connect, 30 frames/sec) immediately prior to injection and at fixed delays after injection in animals either suspended (air-stepping condition) or placed on a treadmill running at a speed of 8-10 cm/sec (treadmill condition). A harness was put around the torso and the waist either to completely suspend animals (air-stepping) or to maintain them in front of the camera on the treadmill (not weight support was provided). Animals were not stimulated otherwise. Locomotor-like movements were defined as rhythmic flexions and extensions occurring in both hindlimbs alternatively. Body weight support and plantar foot placement were facultative and therefore not required to be counted as locomotor-like (LM). In turn, non-locomotor movements (NLM) were defined as non-bilaterally alternating hindlimb movements most often including spasms, kicks, uncoordinated or unilateral movements, etc. In some cases, qualitative assessment methods were used to evaluate the level of induced hindlimb movements. The BBB locomotor scale (Basso, Bresnahan and Beattie, Exp Neurol 1996) and the AOB motor scale (Antri, Orsal and Barthe, Eur J Neurosci 2002) were also occasionally used.

Assay [3] deals with paraplegic mice. Nature of the assay: Hindlimb movement generation in the air-stepping condition (suspended) in spinal cord transected mice. The text has this: Animals and Treatment. Twenty-nine (n=29) male and female adult CD1 mice weighing 30-40 grams prior to the study (Charles River Laboratory, St-Constant, Canada). […] Animals were spinalized 7 days prior to testing. […] Bladders were emptied manually and animals were left in their cage without other interventions with food and water ad libitum until testing. […] A harness was put around the torso and the waist either to completely suspend animals (air-stepping) or to maintain them in front of the camera on the treadmill (not weight support was provided). Animals were not stimulated otherwise. Animals and Treatment. […] Bladders were emptied manually and animals were left in their cage without other interventions with food and water ad libitum until testing. Mice received a single injection (i.p.) of either 8-OHDPAT (5-HT1A/7); 5-CT (5-HT1A/7 agonist); buspirone (5-HT1A agonist); TFMPP (5-HT1B/2C agonist); quipazine (5-HT2B/2C); m-CPP (5-HT2B/2C agonist); SR-57227A (5-HT3) one week post-spinalization. […] Hindlimb movement recording. […] A harness was put around the torso and the waist either to completely suspend animals (air-stepping) or to maintain them in front of the camera on the treadmill (not weight support was provided). Animals were not stimulated otherwise. Locomotor-like movements were defined as rhythmic flexions and extensions occurring in both hindlimbs alternatively. Body weight support and plantar foot placement were facultative and therefore not required to be counted as locomotor-like (LM). In turn, non-locomotor movements (NLM) were defined as non-bilaterally alternating hindlimb movements most often including spasms, kicks, uncoordinated or unilateral movements, etc. In some cases, qualitative assessment methods were used to evaluate the level of induced hindlimb movements. The BBB locomotor scale (Basso, Bresnahan and Beattie, Exp Neurol 1996) and the AOB motor […], Orsal and Barthe, Eur J Neurosci 2002) were also occasionally used.

Assay [4] has as its system paraplegic mice (lumbar spinal cord circuitry for hindlimb locomotion). The assay is described as follows: Hindlimb movement generation (LM/NLM) on a motor-driven treadmill in complete spinal cord transected mice. The procedure:
(§1) Animals and Treatment Thirty-two (n=32) male or female adult CD1 mice weighing 30-40 grams were tested prior to the study (Charles River Laboratory, St-Constant, Canada). The experiment was conducted in a Canadian Council on Animal Care approved facility in accordance with the CCAC Guide for Care and Use of Experimental Animals. Animals were spinalized 7-9 days prior to testing. A complete transection of the spinal cord was performed intervertebrally between the 9th and 10th vertebrae in isoflurane (2.5%) anesthetized animals. Complete spinalization was confirmed by 1) full paralysis of the hindlimbs, 2) post-mortem examination of the spinal cord microscopically and, in some cases, 3) staining transverse or sagittal spinal cord sections with luxol fast blue/cresyl violet for myelinated axons and nissl substance respectively. All mice received pre-operative care and post-operative care including lactate-Ringer's solution (2 ml/day, s.c.), analgesic (buprenorphine 0.2 mg/kg/day, s.c.) and antibiotic (baytril 5 mg/kg/day, s.c.). Bladders were emptied manually and animals were left in their cage without other interventions with food and water ad libitum until testing.
Hindlimb movement recording. Hindlimb movements were filmed (digital video camera 3 Com Home-connect, 30 frames/sec), 1) immediately prior to injection and, 2) at fixed delays after injection in animals placed on a treadmill running at a speed of 8-10 cm/sec (treadmill condition). A harness was put around the torso and the waist to maintain them in front of the camera on the treadmill (not weight support was provided). Animals were not stimulated otherwise. Hindlimb movements were assessed either as locomotor-like movements (LM) or non-locomotor movements (NLM) Locomotor-like movements were defined as rhythmic flexions and extensions occurring in both hindlimbs alternatively. Body weight support and plantar foot placement were facultative and therefore not required to be counted as locomotor-like (LM). In turn, non-locomotor movements (NLM) were defined as non-bilaterally alternating hindlimb movements most often including spasms, kicks, uncoordinated or unilateral movements, etc. Levels of weight supported movements and of plantar foot placements were assessed as either none, occasional, or frequent.
as §1, with “and Treatment. Twenty-nine (n=29)” for “and Treatment Thirty-two (n=32)”, “male and” for “male or”, “grams” for “grams were tested”, “spinalized 7” for “spinalized 7-9”, “(baytril” for “(baytril 5”
Hindlimb movement recording, Hindlimb movements were filmed (digital video camera 3 Com Home-connect, 30 frames/sec) immediately prior to injection and at fixed delays after injection in animals suspended (air-stepping condition) or placed on a treadmill running at a speed of 8-10 cm/sec (treadmill condition). A harness was put around the torso and the waist either to completely suspend animals (air-stepping) or to maintain them in front of the camera on the treadmill (not weight support was provided).

Where [5] appears, read: single injection 0.5-2.5 mg/kg, i.p., CD1 mice 6-7 days post-spinalization, treadmill.
Where [6] appears, read: i.p. prior to 8-OH-DPAT, both strains.
Setting [7] is: L-DOPA 40-100 mg/kg, treadmill, n=29.

`Oc1cc2c(c(Cl)c1O)CCNCC2c1ccccc1` (stereo not drawn) [SKF-81297]: in assay [1] (setting [5]), the “ACOS (averaged combined score = NLM+[LM×2])” value was > 8; the “mice in which a mixture of LM and NLM was induced” value (“mice in which a mixture” for short) is given as 71%.

With `Cc1cccc(C(=O)NCN2CCN(c3ccccc3C#N)CC2)c1` [PD168077], the “induction of LM” value in assay [1] (setting [5]) is reported as “did not induce LM”.

`COc1ccccc1N1CCN(CCN(C(=O)C2CCCCC2)c2ccccn2)CC1` [WAY100,635]: in assay [2] (setting [6]), the “effect of 5-HT1A antagonist pretreatment on 8-OH-DPAT-induced LM” value was “significantly reduced”.

As to `c1ccc2nc(N3CCNCC3)ccc2c1` [quipazine], in assay [2] (quipazine, FIG. 9 vs. FIG. 15), the “times less LM than 8-OH-DPAT tested in similar conditions” value is recorded as 2-3 times. Moreover, the “weight-supported stepping and plantar foot placement” value in assay [2] (quipazine, air-stepping or treadmill 8-10 cm/sec) is “No weight-supported stepping and plantar foot placement were found”. In addition, the “number of movements of each type (LM, NLM)” value in assay [2] (quipazine, treadmill as well as air-stepping, FIG. 15) is on record as 8-15. In assay [3] (quipazine i.p., air-stepping condition, FIG. 14), the “doses inducing some rhythmic LM in air-stepping” value is reported as “above 0.8 mg/kg”. In addition, the ineffective doses result in assay [3] (quipazine i.p., air-stepping, FIG. 14H) is given as “below 0.8 mg/kg”.

Take `FC(F)(F)c1cccc(N2CCNCC2)c1` [TFMPP]: in assay [2] (i.p.), the “induction of LM” value was “not to induce LM” and the “induction of NLM” value is given as “induced only NLM”.

As for `CCCN(CCC)C1CCc2cccc(O)c2C1` (stereo not drawn) [8-OH-DPAT, 8-hydroxy-2-(di-n-propylamino)tetralin], in assay [1] (8-OH-DPAT i.p., spinal mice on a treadmill (FIG. 18), n=28), the “doses at which all-or-none-like effects (LM and NLM) start” value is ≥ 1 mg/kg. Moreover, in assay [2] (8-OH-DPAT 1 mg/kg, i.p., CD1 and C57BI/6 mice seven days after transection), the “induction of hindlimb movements” value was “induced hindlimb alternated movements in most mice”. In assay [2] (8-OH-DPAT 1 mg/kg, i.p., seven days after transection), the “weight supported steps or plantar foot placements” value is “not found”.

In the case of `COc1ccccc1N1CCN(CC(C(=O)NC(C)(C)C)c2ccccc2)CC1` (stereo not drawn) [WAY100,135], in assay [2] (setting [6]), the “effect of 5-HT1A antagonist pretreatment on 8-OH-DPAT-induced LM” value is “significantly reduced”.

`NC[C@@H]1O[C@H](c2ccccc2)Cc2c1ccc(O)c2O` [A-68930]: the “mice in which a mixture” value in assay [1] (setting [5]) came out at 28%.

`Cl.NC1CCN(c2cccc(Cl)n2)CC1` [SR-57227A]: the “locomotor-like movements per min on a treadmill” value in assay [4] (SR-57227A, treadmill, in some animals) was “approx. 2.5 per min”. In assay [2] (SR-57227A i.p., air-stepping, open-field or treadmill), the “type of hindlimb movements induced” value is listed as “can induce only NLM”. In addition, in assay [2] (SR-57227A, FIG. 16), the “scores with the BBB and Antri motor scales” value is listed as “very low scores”. In addition, in assay [2] (SR-57227A, FIG. 16A), the “score on Basso, Beattie and Bresnahan (1996) locomotor scale” value is “Non-significant scores”.

For `CC1CCN(CC[C@H]2CCCN2S(=O)(=O)c2cccc(O)c2)CC1` [SB269970], the “effect of 5-HT7 antagonist pretreatment on 8-OH-DPAT-induced movement frequencies, amplitudes and angular excursions” value in assay [2] (SB269970 2-15 mg/kg, i.p. prior to 8-OH-DPAT, both strains) was “importantly reduced”.

For the compound `CCCN(CCC)C1CCc2ccc(O)cc2C1` (stereo not drawn) [7-OH-DPAT], the “induction of LM” value in assay [1] (setting [5]) was “did not induce LM”.

On to `CN1CCc2cccc3c2[C@H]1Cc1ccc(O)c(O)c1-3` [apomorphine, (R)-5,6,6a,7-tetrahydro-6-methyl-4H-dibenzo-[de,g]quinoline-10,11-diol], for which, in assay [1] (setting [5]), the “mice in which a mixture” value worked out at 11%.

For the compound `N[C@@H](Cc1ccc(O)c(O)c1)C(=O)O` [L-DOPA, L-(−)-2-amino-3-(3,4-dihydroxyphenyl)propionic acid], in assay [4] (L-DOPA 40-100 mg/kg, treadmill, all cases), the “weight bearing locomotor capabilities” value is “no weight bearing locomotor capabilities”. In assay [4] (setting [7]), the “LM per min (average)” value is reported as 6.1±1.3 per min. Besides, the “NLM per min (average)” value in assay [4] (setting [7]) turned out to be 11.2±1.8 per min. Further, the “uneffective doses on treadmill” value in assay [4] (L-DOPA i.p. with benserazide (1:4), CD1 mice 7 days post-spinalization, treadmill 8-10 cm/sec) is listed as < 40 mg/kg. For the same compound, the “time following injection at which hindlimb movements began” value in assay [4] (one mouse (FIG. 6): 40 mg/kg L-DOPA, treadmill) is 20 min. The “hindlimb movement generation in air-stepping” value is “No hindlimb movements” in assay [3] (40 mg/kg L-DOPA, 1-week paraplegic mouse, 20 min post-injection (no effect either 30 or 45 min later)); “No movements” in assay [3] (80 mg/kg L-DOPA, 28 min after injection); “did not induce hindlimb movements” in assay [3] (30-100 mg/kg L-DOPA i.p. with benserazide (1:4), CD1 mice 7 days post-spinalization).

On to `Clc1cccc(N2CCNCC2)c1` [m-CPP], for which, in assay [2] (i.p.), the “induction of LM” value is “not to induce LM” and the “induction of NLM” value is “dose-dependent non-locomotor movements were found”.
